For orientation: IC50 means the point on the concentration scale where inhibition reaches its midpoint. Higher therefore signals a need for much substance. As a reminder, the melting point is the temperature, or range, at which the solid turns liquid.

Here are results for 28 molecules from patent publication US9447134B2 (priority 2012, dated 2016).

For one series, the target named is B. anthracis IMPDH (Bacillus anthracis, UniProt A0A6L8P2U9). The experiment in a line: biochemical.
Another series deals with F. tularensis IMPDH (Francisella tularensis, UniProt Q5NFC2). The series can be described thus: biochemical.
Series [1] deals with T1, CpIMPDH (Cryptosporidium parvum, UniProt Q8T6T2).
T1 sequence (Q8T6T2 1-400): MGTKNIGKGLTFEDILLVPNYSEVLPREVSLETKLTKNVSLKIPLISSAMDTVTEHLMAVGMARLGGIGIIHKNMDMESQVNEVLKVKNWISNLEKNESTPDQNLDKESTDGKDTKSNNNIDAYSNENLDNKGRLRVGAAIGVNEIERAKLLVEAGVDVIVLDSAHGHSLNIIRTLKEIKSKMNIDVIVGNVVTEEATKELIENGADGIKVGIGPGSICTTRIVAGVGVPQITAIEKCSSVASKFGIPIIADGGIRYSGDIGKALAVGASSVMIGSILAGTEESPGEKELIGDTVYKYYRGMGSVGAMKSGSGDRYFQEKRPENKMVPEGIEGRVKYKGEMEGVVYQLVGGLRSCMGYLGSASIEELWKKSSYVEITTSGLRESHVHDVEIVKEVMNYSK
The series can be described thus: biochemical.

Another series has as its system Cryptosporidium. The following applies: mouse models; cited from earlier work.
For series [2] the following is noted: mouse, in vivo; cited from earlier work.
Series [3] in a line: Mouse liver microsomal stability. A general note: Liver microsomes are vesicles of endoplasmic reticulum, rich in cytochrome P450 enzymes.
Series [4] has as its target T1, CpIMPDH.
The target of series [5] is T1, CpIMPDH. The source holds these as a separate data set.
For a further series, the system named is Caco-2 cells. As to conditions: cited from earlier work.

F. tularensis IMPDH, sequence (Q5NFC2 1-486): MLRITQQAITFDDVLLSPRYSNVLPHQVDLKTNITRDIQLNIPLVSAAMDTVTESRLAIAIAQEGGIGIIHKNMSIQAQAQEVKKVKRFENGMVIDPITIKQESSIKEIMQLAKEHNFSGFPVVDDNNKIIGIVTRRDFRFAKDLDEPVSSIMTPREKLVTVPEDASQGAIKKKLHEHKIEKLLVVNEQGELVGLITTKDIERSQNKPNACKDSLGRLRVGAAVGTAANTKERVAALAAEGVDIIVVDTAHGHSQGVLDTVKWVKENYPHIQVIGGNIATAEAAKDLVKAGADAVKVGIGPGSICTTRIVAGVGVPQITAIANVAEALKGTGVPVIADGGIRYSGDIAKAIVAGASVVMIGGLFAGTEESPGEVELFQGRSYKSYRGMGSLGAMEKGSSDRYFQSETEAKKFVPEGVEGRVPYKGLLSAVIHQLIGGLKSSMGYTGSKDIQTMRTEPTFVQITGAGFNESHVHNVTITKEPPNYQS
B. anthracis IMPDH, sequence (A0A6L8P2U9 1-487): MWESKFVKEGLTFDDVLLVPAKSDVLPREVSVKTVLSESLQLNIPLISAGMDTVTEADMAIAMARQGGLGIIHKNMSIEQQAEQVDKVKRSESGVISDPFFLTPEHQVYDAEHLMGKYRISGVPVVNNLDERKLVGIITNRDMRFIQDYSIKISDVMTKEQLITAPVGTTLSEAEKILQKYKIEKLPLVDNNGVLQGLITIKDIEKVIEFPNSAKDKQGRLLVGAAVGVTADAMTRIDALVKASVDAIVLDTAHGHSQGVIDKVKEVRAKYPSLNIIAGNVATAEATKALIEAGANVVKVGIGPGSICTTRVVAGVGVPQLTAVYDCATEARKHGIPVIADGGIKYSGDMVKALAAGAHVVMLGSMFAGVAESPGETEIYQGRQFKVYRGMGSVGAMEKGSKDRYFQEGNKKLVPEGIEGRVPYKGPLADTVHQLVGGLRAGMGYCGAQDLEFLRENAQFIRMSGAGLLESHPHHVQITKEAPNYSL

With `C=C(C)c1cccc(C(C)(C)NC(=O)Nc2ccc3c(c2)OCCO3)c1` [Compound P113], the half-maximal inhibitory concentration (IC50) against B. anthracis IMPDH stood at 110 nM; on F. tularensis IMPDH, 41 nM.
Consider `C[C@H](Sc1cccc(Cl)c1Cl)C(=O)Nc1ccc2oc(-c3ccncc3)nc2c1` [Compound Q75], for which the IC50 against B. anthracis IMPDH was 151 nM; at F. tularensis IMPDH, 192 nM.
The molecule `C=C(C)c1cccc(C(C)(C)NC(=O)Nc2ccc3ccccc3c2)c1` [Compound 5o, 1-(Naphthalen-2-yl)-3-(2-(3-(prop-1-en-2-yl)phenyl)propan-2-yl)urea] returned a melting point of 201 to 203 °C.
As to `C/C(=N\OC(C)(C)C)c1cccc(C(C)(C)NC(=O)Nc2ccc(Cl)c([N+](=O)[O-])c2)c1` [Compound P127], the IC50 on B. anthracis IMPDH worked out at 94 nM; at F. tularensis IMPDH it was 1800 nM.
As to `CC(=O)c1cccc(C(C)(C)OC(=O)Nc2ccc(Cl)cc2)c1` [Compound P112], the IC50 turned out to be 520 nM against B. anthracis IMPDH and 390 nM at F. tularensis IMPDH.
Take `C=C(C)c1cccc(C(C)(C)NC(=O)Nc2ccc3ccccc3n2)c1` [Compound 5t, 1-(2-(3-(prop-1-en-2-yl)phenyl)propan-2-yl)-3-(quinolin-2-yl)urea]: the melting point fell in the range of 126 to 128 °C.
With `CC(=NOC(C)(C)C)c1cccc(C(C)(C)NC(=O)Nc2ccc(Cl)c(C(F)(F)F)c2)c1` [Compound P114], the IC50 against B. anthracis IMPDH worked out at 56 nM; against F. tularensis IMPDH, 6900 nM.
With `Cn1nc(CC(=O)Nc2ccc(Cl)c(F)c2)c2ccccc2c1=O` [Compound D52], on B. anthracis IMPDH, 900 nM corresponded to half-maximal inhibition (IC50).
In turn, `Cc1cc2cc(NC(=O)Cc3nn(C)c(=O)c4ccccc34)ccc2o1` [Compound D62, N-(2-methylbenzofuran-5-yl)-2-(3-methyl-4-oxo-3,4-dihydrophthalazin-1-yl)-acetamide] returned an IC50 against CpIMPDH [1] of 70 nM.
Turning to `CC(=O)Oc1ccccc1C(=O)Nc1ncc([N+](=O)[O-])s1` [nitazoxanide], in the series on Cryptosporidium, the “in vivo anticryptosporidial efficacy (literature, in words)” value is reported as “little to no efficacy”. For the same molecule, the “systemic distribution / oral bioavailability (literature, in words)” value in series [2] is reported as “systemically distributed”.
`CC(NC(=O)c1ccc2oc(-c3ccncc3)nc2c1)c1ccccc1` (stereo not drawn) [Compound Q63]: the IC50 against B. anthracis IMPDH and against F. tularensis IMPDH was 200000 nM in each case.
On to `C/C(=N\O)c1cccc(C(C)(C)NC(=O)Nc2ccc3cccnc3c2)c1` [Compound 7e, (E)-1-(2-(3-(1-(Hydroxyimino)ethyl)phenyl)propan-2-yl)-3-(quinolin-7-yl)urea], for which the melting point lay in the range of 164 to 166 °C.
In turn, `Cn1nc(CC(=O)Nc2ccc(Br)c(C(F)(F)F)c2)c2ccccc2c1=O` [Compound D45] yielded an IC50 at F. tularensis IMPDH of 270 nM.
Take `CC1(c2cccc(CNC(=O)Nc3ccc(Cl)cc3)c2)OCCO1` [Compound 22, 1-(4-Chlorophenyl)-3-(3-(2-methyl-1,3-dioxolan-2-yl)benzyl)urea]: the “half-life in mouse liver microsomes” value in series [3] (37° C., absence of NADPH) is “quite stable”; in [3] (37° C., presence of NADPH), 25 min.
In turn, `C=C(C)c1cccc(C(C)(C)NC(=O)Nc2ccc(Cl)c(Cl)c2)c1` [Compound 5h, 1-(3,4-Dichlorophenyl)-3-(2-(3-(prop-1-en-2-yl)phenyl)propan-2-yl)urea] came in with a melting point of 198 to 200 °C.
Turning to `C=C(C)c1cccc(C(C)(C)NC(=O)Nc2ccc(Cl)c(C(=O)O)c2)c1` [Compound P138], the IC50 came to 67 nM against B. anthracis IMPDH and 120 nM against F. tularensis IMPDH.
`CCn1c2ccccc2c2cc(NC(=O)Cc3nn(C)c(=O)c4ccccc34)ccc21` [Compound D71, N-(9-ethyl-9H-carbazol-3-yl)-2-(3-methyl-oxo-3,4-dihydrophthalazin-1-yl) acetamide]: the “CpIMPDH inhibitory activity (SAR, in words)” value (“CpIMPDH inhibitory activity” for short) on CpIMPDH [4] was “not active”.
Consider `Cn1nc(CC(=O)Nc2ccc3[nH]c4ccccc4c3c2)c2ccccc2c1=O` [Compound D70, N-(9H-carbazol-3-yl)-2-(3-methyl-4-oxo-3,4-dihydrophthalazin-1-yl)acetam-de], for which the “CpIMPDH inhibitory activity” value on CpIMPDH [4] was “not active”.
`C/C(=N\O)c1cccc(C(C)(C)NC(=O)Nc2ccc(Cl)c(C(F)(F)F)c2)c1` [Compound 7a, (E)-1-(4-Chloro-3-(trifluoromethyl)phenyl)-3-(2-(3-(1-(hydroxyimino)ethyl)phenyl)propan-2-yl)urea] came in with a melting point of 194 to 196 °C.
In the case of `Cn1nc(CC(=O)Nc2ccc(Cl)c(C(F)(F)F)c2)c2ccccc2c1=O`, on CpIMPDH [5], the “inhibition mechanism with respect to NAD+” value is reported as “pure noncompetitive inhibitor”. Further, at CpIMPDH [5] (read-out: Kis, with respect to NAD+), the Ki is 3.4 ± 0.2 nM. Further, in [3] (presence or absence of NADPH not given), the “half-life in mouse liver microsomes” value came out at 79 min.
With `O=c1[nH]c(=O)n([C@H]2C[C@H](O)[C@@H](CO)O2)cc1C(F)(F)F` [Trifluoromethylthymidine], the “in vivo anticryptosporidial efficacy (literature, in words)” value in the series on Cryptosporidium is reported as “significant anticryptosporidial activity”.
On to `NC[C@@H]1O[C@H](O[C@H]2[C@@H](O)[C@H](O[C@@H]3[C@@H](O)[C@H](N)C[C@H](N)[C@H]3O[C@H]3O[C@H](CO)[C@@H](O)[C@H](O)[C@H]3N)O[C@@H]2CO)[C@H](N)[C@@H](O)[C@@H]1O` [Paromomycin, paromomycin], for which, in the series with Caco-2 cells, the “accumulation in Caco-2 cells (in words)” value was “high accumulation”. Besides, in series [2], the “systemic distribution / oral bioavailability (literature, in words)” value is given as “poor oral bioavailability”. Also, in the series on C. parvum (paromomycin 2000 mg/kg daily oral gavage), the “range of reduction of fecal oocysts over experiments” value is listed as 73-99%. In addition, the “average reduction of fecal oocysts” value in the series with C. parvum (paromomycin 2000 mg/kg daily oral gavage, average of experiments) was found to be 89%. The “reduction of fecal oocysts, multiple daily dose regime” value in the series on C. parvum (three daily doses (P131 3×83 mg/kg), 10,000 oocysts, counted day 4 post-infection) was 88-95%.
On to `Cn1nc(CC(=O)Nc2ccc3ocnc3c2)c2ccccc2c1=O` [Compound D64, N-(benzo[d]oxazol-5-yl)-2-(3-methyl-4-oxo-3,4-dihydrophthalazin-1-yl)acetamide], for which the “CpIMPDH inhibitory activity” value at CpIMPDH [4] is “inactive”.
`C=C(C)c1cccc(C(C)(C)NC(=O)Nc2ccccc2)c1` [Compound 5a, 1-Phenyl-3-(2-(3-(prop-1-en-2-yl)phenyl)propan-2-yl)urea] yielded a melting point of 188 to 190 °C.
Take `C[C@H](Oc1cccc(Cl)c1Cl)C(=O)Nc1ccc2nc(-c3cncs3)oc2c1` [Compound Q64, (S)-2-(2,3-dichlorophenoxy)-N-(2-(thiazol-5-yl)benzo[d]oxazol-6-yl) propanamide]: the IC50 against B. anthracis IMPDH amounted to 203 nM; at F. tularensis IMPDH it was 93.7 nM.
With `C[C@H](Nc1cccc(Cl)c1Cl)C(=O)Nc1ccc2oc(-c3ccncc3)nc2c1` [Compound Q67, (S)-2-(2,3-dichlorophenylamino)-N-(2-(pyridine-4-yl)benzo[d]oxazol-5-yl)propanamide], the IC50 was 26.8 nM at B. anthracis IMPDH and 27.1 nM against F. tularensis IMPDH.
Regarding `Cn1nc(CC(=O)Nc2ccc3c(c2)oc2ccccc23)c2ccccc2c1=O` [Compound D72, N-(dibenzo[b,d]furan-3-yl)-2-(3-methyl-4-oxo-3,4-dihydrophthalazin-1-yl)acetamide], on CpIMPDH [4], the “CpIMPDH inhibitory activity” value is on record as “not active”.
As for “N-(6,7,8,9-tetrahydrodibenzo[b,d]furan-5-yl)-2-(3-methyl-4-oxo-3,4-dihydro-phthalazin-1-yl)acetamide [Compound D67]”, at CpIMPDH [4], the “CpIMPDH inhibitory activity” value is given as “enhanced potency”.
